Experimental data as given in US12440475B2, “Hodgkin lymphoma therapy” (priority 2016, dated 2025).
pIC50: −log10 of the molar value. Where “and” joins values, the source holds several entries; their conditions need not be identical. Equal entries are not always repeated.

Tests used:
[1] = tested on: Hodgkin lymphoma cell lines; test: Proliferation and IC50 determination (MTS assay; manual counting using Trypan blue); assay type: cell-based; settings: Homo sapiens, 48 h, range over all cell lines
Protocol: Nine Hodgkin lymphoma cell lines were cultured at 37° C. in 24-well plates at a concentration of 0.3×10^6 cells/ml in the presence of EDO-S101 at concentrations of 0, 5, 10, 15 and 20 μmol in DMSO for 24 hours and 48 hours and the proliferation of the cells was determined using a non-radioactive cell proliferation MTS assay with CellTiter 96® Aqueous One solution reagent obtained from Promega® (this is a colorimetric method for determining the number of viable cells in a proliferation comprising a tetrazolium compound [3-(4,5-dimethylthiazol-2-yl)-5-(3-carboxymethoxyphenyl)-2-(4-sulfophenyl)-2H-tetrazolium, inner salt; MIS). The proliferation was plotted against concentration of EDO-S101 for treatment after both 24 and 48 hours.

[2] = tested on: L428 cells; test: Orbital tumour mass at injection site in xenografted NSG mice; assay type: in vivo; settings: after EDO-S101 injection
Source text: (§1) Immunodeficient NOD-SCID-gammac−/− (NSG) mice aged 5 to 6 weeks were purchased from Charles River (NOD.Cg-Prkdcscid II2rgtm1Wjl/SzJ). The mice arrived two weeks before the beginning of the experiments and were housed in micro-isolator cages during the entire course of the study. Immediately prior to the injection of Hodgkin lymphoma cells, mice were exposed to 3 Gy gamma irradiation using an IBL637 ^137Cs irradiator at a dose rate of 0.61 Gy/min. From 10^3 to 10^6 cells, either from the original cell lines or following amplification, were injected intravenously via the retro-orbital sinus. The mice were sacrificed by cervical dislocation and different organs were analysed and tumoural infiltration examined using multiple techniques.
(§2) Two independent experiments were performed to investigate the dose-effect of EDO-S101 in NSG mice eight weeks after xenografting with L428 cells as in Example 8. The aim of the protocol shown in FIG. 8B was to evaluate the effect of sequential treatment with a moderate dose of 60 mg/kg given at an interval of three weeks.
Some mice developed an orbital tumour mass at the site of the injection. […] In one mouse only that was treated with two doses of 60 mg/kg of EDO-S101, a regression of the orbital tumour was initially observed followed by re-establishment of the orbital mass 3 weeks later. […]

[3] = tested on: L428; test: Clonogenic survival in methylcellulose, L428; assay type: cell-based, human; settings: very low doses (0.1 and 0.5 μmol)
Protocol: (§3) In all examples, the human Hodgkin lymphoma-derived cell lines L428, L428-c, KMH2, L591, L540, L1236, HDLM2 and SUP-HD were obtained from Dr Steffen Junker (Aarhus University Denmark). All cell lines were cultured in Gibco RPMI 1640 medium supplemented with Glutamax, 10% FBS and antibiotics at 37° C. […] The immunophenotype, P53 status and MSI characterization of the Hodgkin lymphoma cell lines was determined using anti-CD30, CD15, CD20 and CD14 antibodies.
(§4) This test was performed on four Hodgkin lymphoma cell lines (L428, L428s, KMH2 and L540). Each was cultured with EDO-S101 at doses of 0, 0.1, 0.5, 1, 10 and 20 μmol in DMSO. The cell lines were cultured in methylcellulose (Stem cell Technologies) at a concentration of 10^5/ml at 37° C. and 5% CO2. The surviving fraction was determined by measuring the viability of colonies generated before and after exposure. Only colonies with more than 50 cells were counted. Each data point represents the average and SD from three independent experiments performed in triplicate.

[4] = Weight of xenografted NSG mice after EDO-S101; assay type: in vivo
Protocol: as §2
This weight loss was also observed in mice treated with the vehicle. In contrast, the weight of the control mice receiving only freshly prepared phosphate buffered saline (PBS) buffered to 7.3-7.4 increased up to 11 weeks and then started to decrease.
The toxicity of the dose of 80 mg/kg compared to 60 mg/kg was investigated, as compared to the control groups vehicle and PBS.

[5] = tested on: KMH2; test: Clonogenic survival in methylcellulose, KMH2; assay type: cell-based, human; settings: lowest doses (0.1 and 0.5 μmol)
Protocol: as §3, §4

[6] = tested on: L428 cells; test: L428 xenograft in NSG mice, histopathology (HE staining and CD30 immunohistochemistry); assay type: in vivo; set-up: key to Liver, Tumor cell infiltration, focal/multifocal (score per animal) / Liver, Tumor cell necrosis/Apoptosis (score per animal) / Eye and/or periocular mucosa, periocular tumor cell infiltration, focal/multifocal/diffuse (score per animal) / Tumor/Eye, Tumor cell necrosis/appotosis (score per animal): 0: within physiological limits; 1: minimal; 2: mild; 3: moderate; 4: marked; 5: severe
Source text: as §1, §2
The mice were sacrificed by cervical dislocation. The sampled organs consisted of the eyes (site of injection), liver, spleen and bone marrow. Following dissection of different organs, including tumours, the first portion was used for flow cytometry (FACS) and cytogenetic analyses while the second was fixed in 4% paraformaldehyde (PFA) for immunohistochemistry (IHC). To obtain a single cell suspension, the tissues were first cut into pieces. Thereafter, the cells were physically disaggregated using an 80 μm nylon cell strainer and filtered a second time through a 70 μm nylon cell strainer (BD Biosciences, Erembodegem, Belgium).
Organs were fixed in 4% PFA, trimmed and post-fixed in 70° ethanol. They were then briefly processed using a vacuum inclusion processor and paraffin blocks were prepared. Five micrometer-thick sections were cut from these blocks and the resulting sections were stained with hemotoxylin-eosine (H&E) for histopathological analysis. In addition, IHC was carried out on of the totality of liver and spleen specimens for confirmation of the spread of engrafted cells. The search for single cells or small groups of grafted Hodgkin lymphoma cells was performed using an anti-CD30 antibody (DAKO, France; 1:40, EDTA pH9 pre-treatment) and the Ventana Discovery XT IHC system. Apoptosis and tumour necrosis were analysed.
Microscopic findings were assigned a severity score based upon the following scale: “0”=within physiological limits, “1”=minimal, “2”=mild, “3”=moderate, “4”=marked, “5”=severe. This severity score was attributed according to the size and number of observed lesions.

SMILES: Cn1c(CCCCCCC(=O)NO)nc2cc(N(CCCl)CCCl)ccc21 [EDO-S101]
- pIC50 [1]: 5.20 to 5.80
- orbital tumour mass at site of injection [2]: signification regression
- clones observed (clonogenic survival) [3]: only macrophagic clones being observed
- weight loss, 60 mg/kg versus 80 mg/kg ([4]; single dose 60 mg/kg or 80 mg/kg): no significant difference
- weight of the mice or the different organs ([4]; treated versus untreated mice): No significant difference
- weight of mice ([4]; two doses of 60 mg/kg three weeks apart): weight loss following each administration which was regained after several weeks
- clones observed (clonogenic survival) [5]: only a few clones
- tumour masses in liver ([6]; 80 mg/kg): No tumour masses were observed in the liver
- tumour cell degeneration (necrosis/apoptosis) ([6]; 80 mg/kg or 60 mg/kg): No cell necerosis was observed
- Eye and/or periocular mucosa, periocular tumor cell infiltration, focal/multifocal/diffuse (score per animal) ([6]; 1*60 mg/kg, 60 mg/kg): 5 and 4 (2×) and 3
- Liver, Tumor cell infiltration, focal/multifocal (score per animal) ([6]; 1*60 mg/kg, 60 mg/kg): 2 and 1 and 3
- Tumor/Eye, Tumor cell necrosis/appotosis (score per animal) ([6]; 1*60 mg/kg, 60 mg/kg): 0 (2×) and 1 (2×)
- Eye and/or periocular mucosa, periocular tumor cell infiltration, focal/multifocal/diffuse (score per animal) ([6]; 1*80 mg/kg): 5
- Tumor/Eye, Tumor cell necrosis/appotosis (score per animal) ([6]; 1*80 mg/kg): 1
- Eye and/or periocular mucosa, periocular tumor cell infiltration, focal/multifocal/diffuse (score per animal) ([6]; 2*60 mg/kg): 4
- Liver, Tumor cell necrosis/Apoptosis (score per animal) ([6]; 2*60 mg/kg): 0
- Tumor tissue, without connection to other organs (per animal) ([6]; 2*60 mg/kg): yes
- Liver, Tumor cell infiltration, focal/multifocal (score per animal) ([6]; 2*60 mg/kg, 60 mg/kg): 1 (3×) and 0 and 2
- Tumor/Eye, Tumor cell necrosis/appotosis (score per animal) ([6]; 2*60 mg/kg, 60 mg/kg): 4 and 2 (2×)
- tumour regression ([6]; single dose of 60 mg/kg): significant tumour regression
- severity of tumoural cell infiltration ([6]; single injection 60 or 80 mg/kg, or two injections of 60 mg/kg three weeks apart): significant decrease in the severity of tumoural cell infiltration
- tumour regression ([6]; two administrations of 60 mg/kg three weeks apart, versus control and single 60 mg/kg): Significant tumour regression
